The target in data set [1] is T1, hGIPR (Homo sapiens, UniProt P48546).
T1 construct: expressed in transfected cells; host or cells: CHO CRE-luciferase reporter cells
T1 sequence (P48546 22-466): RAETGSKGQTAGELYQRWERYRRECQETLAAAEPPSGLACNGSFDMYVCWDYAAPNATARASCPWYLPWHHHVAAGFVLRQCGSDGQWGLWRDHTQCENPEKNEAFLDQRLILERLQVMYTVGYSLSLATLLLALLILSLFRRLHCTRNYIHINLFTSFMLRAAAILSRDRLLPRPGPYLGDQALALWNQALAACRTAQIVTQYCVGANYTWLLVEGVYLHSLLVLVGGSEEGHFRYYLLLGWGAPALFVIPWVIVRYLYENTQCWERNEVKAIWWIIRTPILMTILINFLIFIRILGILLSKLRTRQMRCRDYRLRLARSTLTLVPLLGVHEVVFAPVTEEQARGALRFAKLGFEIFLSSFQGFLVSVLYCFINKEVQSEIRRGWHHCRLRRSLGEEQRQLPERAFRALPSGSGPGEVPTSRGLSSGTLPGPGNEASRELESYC
Kind of data set: hGIPR CreLuc assay in 0.5% and 100% plasma (CHO CRE-luciferase reporter cells). The note with it: 0.5% human plasma. The class given is cell-based. On the technique in general: In a reporter assay the amount or activity of a reporter protein is the signal.

Data set [2] is described as follows: Solubility in 0.1 M phosphate buffer at pH 7. The note with it: 0.1 M phosphate buffer at pH 7, 10 mg/mL final peptide concentration, shaking 2 hours at room temperature, peptides as TFA-salts; measured sample pH 6.5-7.0. The class given is physicochemical.

Like-named read-outs stand apart in the source and are kept apart here.

The solubility is the dissolved amount per volume that the medium holds.

`CC[C@H](C)[C@H](NC(=O)[C@H](CC(C)C)NC(=O)[C@H](Cc1c[nH]cn1)NC(=O)[C@H](CCCNC(=N)N)NC(=O)[C@@H](NC(=O)[C@H](Cc1ccccc1)NC(=O)[C@H](C)NC(=O)C(C)(C)NC(=O)[C@H](CCC(N)=O)NC(=O)[C@H](C)NC(=O)[C@H](CCC(N)=O)NC(=O)[C@H](CCCCN)NC(=O)[C@H](CCC(=O)O)NC(=O)[C@H](CC(C)C)NC(=O)C(C)(C)NC(=O)[C@@H](NC(=O)[C@H](CO)NC(=O)[C@H](Cc1ccc(O)cc1)NC(=O)[C@H](CC(=O)O)NC(=O)[C@H](CO)NC(=O)[C@@H](NC(=O)[C@H](Cc1ccccc1)NC(=O)[C@@H](NC(=O)CNC(=O)[C@H](CCC(=O)O)NC(=O)C(C)(C)NC(=O)[C@@H](N)Cc1ccc(O)cc1)[C@@H](C)O)[C@@H](C)O)[C@@H](C)CC)C(C)C)C(=O)N[C@@H](CC(N)=O)C(=O)N[C@@H](CCCCNC(=O)[C@@H](N)CCCCNC(=O)CC[C@H](NC(=O)CC[C@H](NC(=O)CC[C@H](NC(=O)CC[C@H](NC(=O)CC[C@H](NC(=O)CC[C@H](NC(=O)CCCCCCCCCCCCCCCCCCC(=O)O)C(=O)O)C(=O)O)C(=O)O)C(=O)O)C(=O)O)C(=O)O)C(=O)N[C@@H](CC(C)C)C(=O)N[C@H](C(=O)N[C@@H](CCCNC(=N)N)C(=O)N[C@@H](CCC(N)=O)C(=O)N[C@@H](CCCNC(=N)N)C(=O)N[C@@H](Cc1ccc(O)cc1)C(N)=O)[C@@H](C)O` [Compound 27, Y-Aib-E-G-T-F-T-S-D-Y-S-I-Aib-L-E-K-Q-A-Q-Aib-A-F-V-R-H-L-I-N-K(1,3)-L-T-R-Q-R-Y-NH2.C20DA-gGlu-gGlu-gGlu-gGlu-gGlu-gGlu-eLys(1,2)]: in data set [1] (read-out: hGIPR 0.5% hP), the EC50 was determined as 0.6 nM. In addition, the solubility at 2 h in data set [2] worked out at 10000 µg/mL.
`CC[C@H](C)[C@H](NC(=O)[C@H](CC(C)C)NC(=O)[C@H](Cc1c[nH]cn1)NC(=O)[C@H](CCCNC(=N)N)NC(=O)[C@@H](NC(=O)[C@H](Cc1ccccc1)NC(=O)[C@H](C)NC(=O)C(C)(C)NC(=O)[C@H](CCC(N)=O)NC(=O)[C@H](C)NC(=O)[C@H](CCC(N)=O)NC(=O)[C@H](CCCCN)NC(=O)[C@H](CCC(=O)O)NC(=O)[C@H](CC(C)C)NC(=O)C(C)(C)NC(=O)[C@@H](NC(=O)[C@H](CO)NC(=O)[C@H](Cc1ccc(O)cc1)NC(=O)[C@H](CC(=O)O)NC(=O)[C@H](CO)NC(=O)[C@@H](NC(=O)[C@H](Cc1ccccc1)NC(=O)[C@@H](NC(=O)CNC(=O)[C@H](CCC(=O)O)NC(=O)C(C)(C)NC(=O)[C@@H](N)Cc1ccc(O)cc1)[C@@H](C)O)[C@@H](C)O)[C@@H](C)CC)C(C)C)C(=O)N[C@@H](CC(N)=O)C(=O)N[C@@H](CCCCNC(=O)[C@@H](N)CCCCNC(=O)CC[C@H](NC(=O)CC[C@H](NC(=O)CC[C@H](NC(=O)CC[C@H](NC(=O)CC[C@H](NC(=O)CC[C@H](NC(=O)CC[C@H](NC(=O)CCCCCCCCCCCCCCCCCCC(=O)O)C(=O)O)C(=O)O)C(=O)O)C(=O)O)C(=O)O)C(=O)O)C(=O)O)C(=O)NC(C)(C)C(=O)N[C@H](C(=O)N[C@@H](CCCNC(=N)N)C(=O)N[C@@H](CCC(N)=O)C(=O)N[C@@H](CCCNC(=N)N)C(=O)N[C@@H](Cc1ccc(O)cc1)C(N)=O)[C@@H](C)O` [Compound 35, Y-Aib-E-G-T-F-T-S-D-Y-S-I-Aib-L-E-K-Q-A-Q-Aib-A-F-V-R-H-L-I-N-K(1,3)-Aib-T-R-Q-R-Y-NH2.C20DA-gGlu-gGlu-gGlu-gGlu-gGlu-gGlu-gGlu-eLys(1,2)]: the EC50 in data set [1] (read-out: hGIPR 0.5% hP) was found to be 0.7 nM. Besides, the solubility at 2 h in data set [2] is 5200 µg/mL.
Take `CC[C@H](C)[C@H](NC(=O)[C@H](CC(C)C)NC(=O)[C@H](Cc1c[nH]cn1)NC(=O)[C@H](CCCNC(=N)N)NC(=O)[C@@H](NC(=O)[C@H](Cc1ccccc1)NC(=O)[C@H](C)NC(=O)C(C)(C)NC(=O)[C@H](CCC(N)=O)NC(=O)[C@H](C)NC(=O)[C@H](CCC(N)=O)NC(=O)[C@H](CCCCN)NC(=O)[C@H](CCC(=O)O)NC(=O)[C@H](CC(C)C)NC(=O)C(C)(C)NC(=O)[C@@H](NC(=O)[C@H](CO)NC(=O)[C@H](Cc1ccc(O)cc1)NC(=O)[C@H](CC(=O)O)NC(=O)[C@H](CO)NC(=O)[C@@H](NC(=O)[C@H](Cc1ccccc1)NC(=O)[C@@H](NC(=O)CNC(=O)[C@H](CCC(=O)O)NC(=O)C(C)(C)NC(=O)[C@@H](N)Cc1ccc(O)cc1)[C@@H](C)O)[C@@H](C)O)[C@@H](C)CC)C(C)C)C(=O)N[C@@H](CC(N)=O)C(=O)N[C@@H](CCCCNC(=O)[C@@H](N)CCNC(=O)CC[C@H](NC(=O)CC[C@H](NC(=O)CC[C@H](NC(=O)CC[C@H](NC(=O)CC[C@H](NC(=O)CC[C@H](NC(=O)CCCCCCCCCCCCCCCCCCC(=O)O)C(=O)O)C(=O)O)C(=O)O)C(=O)O)C(=O)O)C(=O)O)C(=O)NC(C)(C)C(=O)N[C@H](C(=O)N[C@@H](CCCNC(=N)N)C(=O)N[C@@H](CCC(N)=O)C(=O)N[C@@H](CCCNC(=N)N)C(=O)N[C@@H](Cc1ccc(O)cc1)C(N)=O)[C@@H](C)O` [Compound 46, Y-Aib-E-G-T-F-T-S-D-Y-S-I-Aib-L-E-K-Q-A-Q-Aib-A-F-V-R-H-L-I-N-K(1,3)-Aib-T-R-Q-R-Y-NH2.C20DA-gGlu-gGlu-gGlu-gGlu-gGlu-gGlu-gDab(1,2)]: the EC50 in data set [1] (read-out: hGIPR 0.5% hP) came to 0.8 nM. For the same compound, in data set [2], the solubility at 2 h was determined as 4200 µg/mL.
For the compound `CC[C@H](C)[C@H](NC(=O)[C@H](CC(C)C)NC(=O)[C@H](Cc1c[nH]cn1)NC(=O)[C@H](CCCNC(=N)N)NC(=O)[C@@H](NC(=O)[C@H](Cc1ccccc1)NC(=O)[C@H](C)NC(=O)C(C)(C)NC(=O)[C@H](CCC(N)=O)NC(=O)[C@H](C)NC(=O)[C@H](CCC(N)=O)NC(=O)[C@H](CCCCN)NC(=O)[C@H](CCC(=O)O)NC(=O)[C@H](CC(C)C)NC(=O)C(C)(C)NC(=O)[C@@H](NC(=O)[C@H](CO)NC(=O)[C@H](CC(C)C)NC(=O)[C@H](CC(=O)O)NC(=O)[C@H](CO)NC(=O)[C@@H](NC(=O)[C@H](Cc1ccccc1)NC(=O)[C@@H](NC(=O)CNC(=O)[C@H](CCC(=O)O)NC(=O)C(C)(C)NC(=O)[C@@H](N)Cc1ccc(O)cc1)[C@@H](C)O)[C@@H](C)O)[C@@H](C)CC)C(C)C)C(=O)N[C@@H](CC(N)=O)C(=O)N[C@@H](CCCCNC(=O)CC[C@H](NC(=O)CC[C@H](NC(=O)CC[C@H](NC(=O)CC[C@H](NC(=O)CC[C@H](NC(=O)CC[C@H](NC(=O)CCCCCCCCCCCCCCCCCCC(=O)O)C(=O)O)C(=O)O)C(=O)O)C(=O)O)C(=O)O)C(=O)O)C(=O)NC(C)(C)C(=O)N[C@H](C(=O)N[C@@H](CCCNC(=N)N)C(=O)N[C@@H](CCC(N)=O)C(=O)N[C@@H](CCCNC(=N)N)C(=O)N[C@@H](Cc1ccc(O)cc1)C(N)=O)[C@@H](C)O` [Compound 51, Y-Aib-E-G-T-F-T-S-D-L-S-I-Aib-L-E-K-Q-A-Q-Aib-A-F-V-R-H-L-I-N-K(1,3)-Aib-T-R-Q-R-Y-NH2.C20DA-gGlu-gGlu-gGlu-gGlu-gGlu-gGlu(1,2)], the EC50 in data set [1] (hGIPR 0.5% hP (nM)) was found to be 0.5 nM. Also, the solubility at 2 h in data set [2] was found to be 9300 µg/mL.
Turning to `CC[C@H](C)[C@H](NC(=O)[C@H](CC(C)C)NC(=O)[C@H](Cc1c[nH]cn1)NC(=O)[C@H](CCCNC(=N)N)NC(=O)[C@@H](NC(=O)[C@H](Cc1ccccc1)NC(=O)[C@H](C)NC(=O)C(C)(C)NC(=O)[C@H](CCC(N)=O)NC(=O)[C@H](C)NC(=O)[C@H](CCC(N)=O)NC(=O)[C@H](CCCCN)NC(=O)[C@H](CCC(=O)O)NC(=O)[C@H](CC(C)C)NC(=O)C(C)(C)NC(=O)[C@@H](NC(=O)[C@H](CO)NC(=O)[C@H](Cc1ccc(O)cc1)NC(=O)[C@H](CC(=O)O)NC(=O)[C@H](CO)NC(=O)[C@@H](NC(=O)[C@H](Cc1ccccc1)NC(=O)[C@@H](NC(=O)CNC(=O)[C@H](CCC(=O)O)NC(=O)C(C)(C)NC(=O)[C@@H](N)Cc1ccc(O)cc1)[C@@H](C)O)[C@@H](C)O)[C@@H](C)CC)C(C)C)C(=O)N[C@@H](CC(N)=O)C(=O)N[C@@H](CCCCNC(=O)[C@@H](N)CCCCNC(=O)CC[C@H](NC(=O)CC[C@H](NC(=O)CC[C@H](NC(=O)CC[C@H](NC(=O)CC[C@H](NC(=O)CCCCCCCCCCCCCCCCCCC(=O)O)C(=O)O)C(=O)O)C(=O)O)C(=O)O)C(=O)O)C(=O)NC(C)(C)C(=O)N[C@H](C(=O)N[C@@H](CCCNC(=N)N)C(=O)N[C@@H](CCC(N)=O)C(=O)N[C@@H](CCCNC(=N)N)C(=O)N[C@@H](Cc1ccc(O)cc1)C(N)=O)[C@@H](C)O` [Compound 59, Y-Aib-E-G-T-F-T-S-D-Y-S-I-Aib-L-E-K-Q-A-Q-Aib-A-F-V-R-H-L-I-N-K(1,3)-Aib-T-R-Q-R-Y-NH2.C20DA-gGlu-gGlu-gGlu-gGlu-gGlu-eLys(1,2)], in data set [1] (read-out: hGIPR 0.5% hP), the EC50 worked out at 0.4 nM. For the same compound, the solubility at 2 h in data set [2] amounted to 2100 µg/mL.

For the origin of these results see patent publication US20250382344A1, “Soluble GLP1/GIP/NPY2 Receptor Triple Agonists” (Boehringer Ingelheim International GmH, priority 2024, published 2025).
